# What was measured:
# [1] = tested on: BaF3; assay: Antiproliferative activity against mouse BaF3 cells harboring wild type EGFR; format: functional, cell-based
# [2] = Antiproliferative activity against mouse Ba/F3 EGFR-V769_D770insASV cells; format: functional, cell-based
# [3] = Antiproliferative activity against mouse Ba/F3 EGFR-D770-N771ins_SVD cells; format: functional, cell-based
# [4] = Selectivity index, ratio of IC50 for antiproliferative activity against mouse BaF3 cells harboring wild type EGFR to IC50 for antiproliferative activity against mouse Ba/F3 EGFR-V769_D770insASV cells; format: functional
# [5] = Antiproliferative activity against mouse Ba/F3 EGFR-D770-N771ins_SVD cells incubated for 48 hrs by Cell Titer-Glo assay; format: functional, cell-based
# [6] = Antiproliferative activity against mouse Ba/F3 EGFR-V769_D770insASV cells incubated for 48 hrs by Cell Titer-Glo assay; format: functional, cell-based
# [7] = tested on: BaF3; assay: Antiproliferative activity against mouse BaF3 cells harboring EGFR-D770-N771insNPG mutant incubated for 48 hrs by Cell Titer-Glo assay; format: functional, cell-based; conditions: BaF3, 48 h
# [8] = tested on: BaF3; assay: Antiproliferative activity against mouse BaF3 cells harboring wild type EGFR incubated for 48 hrs by Cell Titer-Glo assay; format: functional, cell-based; conditions: BaF3, 48 h
# [9] = Antiproliferative activity against mouse Ba/F3 EGFR-A763_Y764insFQEA cells; format: functional, cell-based
# [10] = Antiproliferative activity against mouse Ba/F3 EGFR-H773-V774ins_NPH cells; format: functional, cell-based
# [11] = Antiproliferative activity against mouse Ba/F3 EGFR-A763_Y764insFQEA cells incubated for 3 days by Cell Titer-Glo assay; format: functional, cell-based; conditions: 72 h
# [12] = tested on: BaF3; assay: Antiproliferative activity against mouse BaF3 cells harboring wild type EGFR incubated for 3 days by Cell Titer-Glo assay; format: functional, cell-based; conditions: BaF3, 72 h
# [13] = Antiproliferative activity against mouse Ba/F3 EGFR-H773-V774ins_NPH cells incubated for 3 days by Cell Titer-Glo assay; format: functional, cell-based; conditions: 72 h
# [14] = Antiproliferative activity against mouse Ba/F3 EGFR-D770-N771ins_SVD cells incubated for 3 days by Cell Titer-Glo assay; format: functional, cell-based; conditions: 72 h
# [15] = tested on: BaF3; assay: Antiproliferative activity against mouse BaF3 cells harboring EGFR-D770-N771insNPG mutant incubated for 3 days by Cell Titer-Glo assay; format: functional, cell-based; conditions: BaF3, 72 h
# [16] = Antiproliferative activity against mouse Ba/F3 EGFR-V769_D770insASV cells incubated for 3 days by Cell Titer-Glo assay; format: functional, cell-based; conditions: 72 h
# [17] = target: Epidermal growth factor receptor (Homo sapiens, UniProt P00533, D770-N771INSNPG); assay: Inhibition of EGFR-D770-N771insNPG mutant (unknown origin) phosphorylation
# Sequence of Epidermal growth factor receptor (Homo sapiens, UniProt P00533, D770-N771INSNPG) (P00533 whole entry, looked up, stated change not applied): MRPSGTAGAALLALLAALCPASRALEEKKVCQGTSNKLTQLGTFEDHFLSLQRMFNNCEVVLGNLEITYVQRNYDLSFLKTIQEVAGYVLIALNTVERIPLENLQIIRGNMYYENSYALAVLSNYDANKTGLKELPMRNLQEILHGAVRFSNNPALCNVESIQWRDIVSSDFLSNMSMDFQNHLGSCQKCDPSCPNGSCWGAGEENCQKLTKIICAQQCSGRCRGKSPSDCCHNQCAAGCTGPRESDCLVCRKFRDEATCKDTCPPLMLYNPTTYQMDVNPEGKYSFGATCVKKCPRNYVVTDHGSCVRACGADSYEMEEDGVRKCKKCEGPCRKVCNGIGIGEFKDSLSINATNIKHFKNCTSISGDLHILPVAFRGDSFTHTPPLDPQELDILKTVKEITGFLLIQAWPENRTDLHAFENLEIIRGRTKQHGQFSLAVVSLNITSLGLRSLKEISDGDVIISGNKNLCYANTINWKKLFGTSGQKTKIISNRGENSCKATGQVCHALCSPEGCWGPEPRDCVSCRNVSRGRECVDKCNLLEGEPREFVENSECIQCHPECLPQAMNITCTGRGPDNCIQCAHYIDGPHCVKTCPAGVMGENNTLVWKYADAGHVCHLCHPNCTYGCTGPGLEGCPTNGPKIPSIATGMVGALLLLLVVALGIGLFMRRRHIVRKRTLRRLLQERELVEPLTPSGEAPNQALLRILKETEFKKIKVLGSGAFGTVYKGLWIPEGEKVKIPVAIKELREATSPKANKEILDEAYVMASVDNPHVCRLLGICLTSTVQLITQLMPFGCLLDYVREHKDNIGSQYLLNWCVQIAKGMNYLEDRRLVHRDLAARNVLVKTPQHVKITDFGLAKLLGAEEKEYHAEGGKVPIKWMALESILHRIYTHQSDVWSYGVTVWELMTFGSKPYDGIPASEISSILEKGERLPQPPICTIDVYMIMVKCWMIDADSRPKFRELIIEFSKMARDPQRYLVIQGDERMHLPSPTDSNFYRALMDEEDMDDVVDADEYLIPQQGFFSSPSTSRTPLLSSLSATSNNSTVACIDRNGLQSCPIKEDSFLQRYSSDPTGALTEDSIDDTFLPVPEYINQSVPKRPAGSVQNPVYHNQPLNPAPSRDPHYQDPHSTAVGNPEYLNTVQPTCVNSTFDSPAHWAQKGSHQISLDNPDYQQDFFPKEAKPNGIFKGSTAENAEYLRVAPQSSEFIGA
# [18] = tested on: NIH3T3; assay: Antiproliferative activity against mouse NIH/3T3 cells harboring EGFR-H773-V774ins_NPH incubated for 72 hrs by Cell Titer-Glo assay; format: functional, cell-based; conditions: NIH3T3, 72 h
# [19] = tested on: BaF3; assay: Antiproliferative activity against mouse Ba/F3 cells harboring EGFR-H773-V774ins_PH mutant incubated for 3 days by Cell Titer-Glo assay; format: functional, cell-based; conditions: BaF3, 72 h
# [20] = target: Epidermal growth factor receptor (Homo sapiens, UniProt P00533); assay: Inhibition of wildtype EGFR (unknown origin) phosphorylation
# Sequence of Epidermal growth factor receptor (Homo sapiens, UniProt P00533) (P00533 whole entry): as the sequence (P00533 whole entry, looked up, stated change not applied) above
# [21] = tested on: NIH3T3; assay: Antiproliferative activity against mouse NIH/3T3 cells harboring EGFR-D770-N771ins_SVD incubated for 72 hrs by Cell Titer-Glo assay; format: functional, cell-based; conditions: NIH3T3, 72 h
# [22] = tested on: NIH3T3; assay: Antiproliferative activity against mouse NIH/3T3 cells harboring EGFR-V769_D770insASV incubated for 72 hrs by Cell Titer-Glo assay; format: functional, cell-based; conditions: NIH3T3, 72 h
# [23] = tested on: BaF3; assay: Antiproliferative activity against mouse Ba/F3 cells harboring EGFR-D770-N771ins_G mutant incubated for 3 days by Cell Titer-Glo assay; format: functional, cell-based; conditions: BaF3, 72 h
# [24] = tested on: NIH3T3; assay: Antiproliferative activity against mouse NIH/3T3 cells harboring wild type EGFR incubated for 72 hrs by Cell Titer-Glo assay; format: functional, cell-based; conditions: NIH3T3, 72 h
# [25] = tested on: NIH3T3; assay: Antiproliferative activity against mouse NIH/3T3 cells harboring EGFR-A763_Y764insFQEA incubated for 72 hrs by Cell Titer-Glo assay; format: functional, cell-based; conditions: NIH3T3, 72 h
# [26] = Selectivity index, ratio of IC50 for antiproliferative activity against mouse BaF3 cells harboring wild type EGFR to IC50 for antiproliferative activity against mouse Ba/F3 EGFR-H773-V774ins_NPH cells; format: functional
# [27] = Selectivity index, ratio of IC50 for antiproliferative activity against mouse BaF3 cells harboring wild type EGFR to IC50 for antiproliferative activity against mouse Ba/F3 EGFR-A763_Y764insFQEA cells; format: functional
# [28] = Selectivity index, ratio of IC50 for antiproliferative activity against mouse BaF3 cells harboring wild type EGFR to IC50 for antiproliferative activity against mouse BaF3 cells harboring EGFR-D770-N771insNPG mutant; format: functional
# [29] = Selectivity index, ratio of IC50 for antiproliferative activity against mouse BaF3 cells harboring wild type EGFR to IC50 for antiproliferative activity against mouse Ba/F3 EGFR-D770-N771ins_SVD cells; format: functional
# [30] = Antiproliferative activity against mouse Ba/F3 EGFR-A763_Y764insFQEA cells incubated for 72 hrs by CCK-8 assay; format: functional, cell-based
# [31] = tested on: BaF3; assay: Potency index, ratio of afatinib IC50 to test compound IC50 for antiproliferative activity against mouse BaF3 cells harboring EGFR exon 20 insertion mutant incubated for 72 hrs by Cell Titer-Glo assay; format: functional
# [32] = Antiproliferative activity against human YUL-0019 cells harboring EGFR N771delinsFH mutant incubated for 72 hrs by Cell Titer-Glo assay; format: functional, cell-based; conditions: YUL-0019, 72 h
# [33] = Antiproliferative activity against mouse Ba/F3 EGFR-D770-N771ins_SVD cells incubated for 72 hrs by CCK-8 assay; format: functional, cell-based
# [34] = Antiproliferative activity against mouse Ba/F3 EGFR-H773-V774ins_NPH cells incubated for 72 hrs by CCK-8 assay; format: functional, cell-based
# [35] = Antiproliferative activity against mouse Ba/F3 EGFR-V769_D770insASV cells incubated for 72 hrs by CCK-8 assay; format: functional, cell-based
# [36] = tested on: BaF3; assay: Antiproliferative activity against mouse BaF3 cells harboring EGFR exon 20 insertion mutant incubated for 72 hrs by Cell Titer-Glo assay; format: functional, cell-based; conditions: BaF3, 72 h
# [37] = Antiproliferative activity against human CUTO14 cells harboring EGFR V769_D770insASV mutant incubated for 72 hrs by Cell Titer-Glo assay; format: functional, cell-based; conditions: CUTO14, 72 h
# [38] = Metabolic stability in human hepatocytes assessed as intrinsic clearance measured per 10^6 cells at 100 uM measured upto 100 mins by LC-MS/MS analysis; format: ADME, cell-based, Hepatocyte; conditions: read-out: CLH
# [39] = Antiproliferative activity against human CUTO14 cells harboring EGFR V769_D770insASV mutant incubated for 72 hrs by MTS assay; format: functional, cell-based; conditions: CUTO14, 72 h
smiles,measurement,setting,value
C=CC(=O)Nc1cccc(N(C(=O)OCc2ccc(F)cc2)c2ccnc(Nc3cnn(C)c3)n2)c1,IC50,[1],7.6 nM
same,IC50,[2],34 nM
same,IC50,[3],15 nM
same,Ratio IC50,[4],0.22
COc1c(F)cccc1Nc1c(-c2ccncc2OCC(C)(C)OC)[nH]c2c1C(=O)NCC2,IC50,[5],11.9 nM
same,IC50,[6],15.3 nM
same,IC50,[7],12.8 nM
same,Ratio IC50,[4],25.9
same,IC50,[8],397 nM
COc1c(Cl)cccc1Nc1c(-c2ccncc2C#C[C@@]2(C)CCCN2C(=O)/C=C/CN(C)C)[nH]c2c1C(=O)NCC2,IC50,[9],7.7 nM
same,IC50,[10],16.7 nM
same,IC50,[2],5.62 nM
same,IC50,[3],6.22 nM
CN(C)C/C=C/C(=O)Nc1cc2c(Nc3ccc(F)c(Cl)c3)ncnc2cc1O[C@H]1CCOC1 [AFATINIB],IC50,[11],2.7 nM
same,IC50,[12],3.8 nM
same,IC50,[13],102 nM
same,IC50,[14],163 nM
same,IC50,[15],40 nM
same,Ratio IC50,[4],0.08
same,IC50,[16],46 nM
C=CC(=O)N[C@H]1C=C(C)c2c(-c3cnc4ccccc4c3)c3c(N)ncnc3n2C1 [CLN-081],IC50,[17],7.4 nM
same,IC50,[11],5 nM
same,IC50,[18],66.7 nM
same,IC50,[12],676 nM
same,IC50,[19],5 nM
same,IC50,[20],8 nM
same,IC50,[21],23.4 nM
same,IC50,[22],78.2 nM
same,IC50,[13],5 nM
same,IC50,[23],5 nM
same,IC50,[24],368 nM
same,IC50,[25],< 4.48 nM
same,IC50,[14],5 nM
same,IC50,[16],5 nM
C#Cc1cccc(Nc2ncnc3cc(OCCOC)c(OCCOC)cc23)c1 [ERLOTINIB],IC50,[11],214 nM
same,IC50,[12],71 nM
same,IC50,[13],2700 nM
same,IC50,[14],3480 nM
same,IC50,[15],2320 nM
same,Ratio IC50,[4],0.05
same,IC50,[16],1340 nM
C=CC(=O)Nc1cc(Nc2ncc(C(=O)OC(C)C)c(-c3cn(C)c4ccccc34)n2)c(OC)cc1N(C)CCN(C)C [MOBOCERTINIB],Ratio IC50,[26],1.5
same,IC50,[11],11.8 nM
same,Ratio IC50,[27],1.5
same,IC50,[12],34.5 nM
same,Ratio IC50,[28],1.5
same,Ratio IC50,[29],1.5
same,IC50,[13],18.1 nM
same,IC50,[14],22.5 nM
same,IC50,[15],4.3 nM
same,Ratio IC50,[4],3.17
same,IC50,[16],10.9 nM
C=CC(=O)Nc1cc(Nc2nccc(-c3cn(C)c4ccccc34)n2)c(OC)cc1N(C)CCN(C)C [OSIMERTINIB],IC50,[11],87 nM
same,IC50,[12],350 nM
same,IC50,[13],469 nM
same,IC50,[14],576 nM
same,IC50,[15],57 nM
same,Ratio IC50,[4],2.02
same,IC50,[16],173 nM
C=CC(=O)N1CCC(Oc2cc3c(Nc4ccc(Cl)c(Cl)c4F)ncnc3cc2OC)CC1 [POZIOTINIB],IC50,[30],0.7 nM
same,Ratio IC50,[31],~40
same,IC50,[32],0.3 nM
same,IC50,[33],2.7 nM
same,IC50,[34],2.2 nM
same,IC50,[35],4.8 nM
same,IC50,[36],1 nM
same,IC50,[37],1.8 nM
C=CC(=O)Nc1cc(Nc2nccc(Nc3cc(Cl)c(F)cc3C(C)(C)O)n2)c(OC)cc1N1CC[C@@H](N(C)C)C1 [SUNVOZERTINIB],IC50,[12],12.7 nM
same,hepatocyte CLint at 100 µM,[38],2.77 µL/min/1e6 cells
same,IC50,[13],29.6 nM
same,Ratio IC50,[4],0.57
same,IC50,[16],22.1 nM
CN(C)C/C=C/C(=O)Nc1cc2c(Nc3ccc(Cl)c(Br)c3)ncnc2cn1 [TH-4000E],IC50,[30],< 0.5 nM
same,IC50,[33],7.3 nM
same,IC50,[34],9.9 nM
same,IC50,[35],7.6 nM
same,IC50,[39],72 nM
C=CC(=O)Nc1cc2c(Nc3ccc(OCc4ccccn4)c(Cl)c3)ncnc2cc1OCCN1CCOCC1 [TUXOBERTINIB],IC50,[1],~1000 nM
same,IC50,[3],< 100 nM

# From ChEMBL document CHEMBL5365460, “Structural Mechanism and Inhibitors Targeting EGFR Exon 20 Insertion (Ex20ins) Mutations” (J Med Chem, 2023)
